Here are results for 16 compounds from US20230019491A1, “PYRIMIDINE TBK/IKKe INHIBITOR COMPOUNDS AND USES THEREOF” (Merck Patent GmbH, priority 2017, published 2023).

In one test the target is T1, IKKε (Homo sapiens, UniProt Q14164).
T1 sequence (Q14164 1-716): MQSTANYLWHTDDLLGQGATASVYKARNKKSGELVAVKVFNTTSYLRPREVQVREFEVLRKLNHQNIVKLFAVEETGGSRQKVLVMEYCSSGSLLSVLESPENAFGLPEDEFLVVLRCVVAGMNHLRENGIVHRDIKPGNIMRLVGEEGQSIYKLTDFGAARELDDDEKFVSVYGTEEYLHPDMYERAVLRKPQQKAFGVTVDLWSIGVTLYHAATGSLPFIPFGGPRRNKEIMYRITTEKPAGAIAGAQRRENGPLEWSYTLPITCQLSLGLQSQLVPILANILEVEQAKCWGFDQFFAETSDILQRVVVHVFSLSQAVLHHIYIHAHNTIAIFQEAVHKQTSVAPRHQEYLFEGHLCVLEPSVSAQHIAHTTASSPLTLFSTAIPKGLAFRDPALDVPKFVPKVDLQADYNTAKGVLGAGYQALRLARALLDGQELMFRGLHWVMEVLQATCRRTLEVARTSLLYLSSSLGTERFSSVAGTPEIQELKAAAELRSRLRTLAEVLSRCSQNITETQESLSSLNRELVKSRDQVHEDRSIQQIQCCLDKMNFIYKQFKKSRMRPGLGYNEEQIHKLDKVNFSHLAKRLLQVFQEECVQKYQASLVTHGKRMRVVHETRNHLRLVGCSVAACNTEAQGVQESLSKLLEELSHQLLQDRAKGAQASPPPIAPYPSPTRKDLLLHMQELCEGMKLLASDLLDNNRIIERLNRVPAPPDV
Briefly: IKKε biochemical assay. The note with it: 10 point 1:4 dose response, 30 uM top concentration, 90 min at 25° C., LabChip EZ Reader II; read-out: IKKε_IC50. The method, boiled down:
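Mobility-shift LabChip read-out followed a 90 min, 25° C. reaction of IKKε with substrate and test compound, with DMSO held at 1% final. Reactions were ended with stop buffer. Wells with 10 uM final staurosporine defined complete inhibition, and DMSO-only wells the uninhibited level.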

A further test has as its target T2, TBK1 (Homo sapiens, UniProt Q9UHD2).
T2 sequence (Q9UHD2 1-729): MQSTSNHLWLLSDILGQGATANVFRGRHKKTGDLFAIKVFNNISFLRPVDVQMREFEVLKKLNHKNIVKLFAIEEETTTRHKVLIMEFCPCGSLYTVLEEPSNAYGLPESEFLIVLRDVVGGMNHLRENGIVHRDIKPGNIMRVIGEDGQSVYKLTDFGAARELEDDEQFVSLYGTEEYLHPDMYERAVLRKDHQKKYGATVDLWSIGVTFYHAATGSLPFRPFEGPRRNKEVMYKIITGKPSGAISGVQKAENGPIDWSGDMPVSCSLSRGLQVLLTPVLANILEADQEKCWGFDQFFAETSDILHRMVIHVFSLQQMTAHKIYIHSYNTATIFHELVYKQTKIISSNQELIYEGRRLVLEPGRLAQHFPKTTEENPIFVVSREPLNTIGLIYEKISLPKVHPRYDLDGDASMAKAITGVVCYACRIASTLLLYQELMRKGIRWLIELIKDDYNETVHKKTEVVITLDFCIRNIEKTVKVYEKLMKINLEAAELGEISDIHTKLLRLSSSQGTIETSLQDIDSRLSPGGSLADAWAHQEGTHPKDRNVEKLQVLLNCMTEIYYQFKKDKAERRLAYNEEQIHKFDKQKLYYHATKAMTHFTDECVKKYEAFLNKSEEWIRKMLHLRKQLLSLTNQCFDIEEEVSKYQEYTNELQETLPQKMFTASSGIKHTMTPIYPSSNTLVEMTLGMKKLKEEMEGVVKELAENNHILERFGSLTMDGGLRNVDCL
The experiment in a line: TBK biochemical assay. The note with it: 10 point 1:4 dose response, 30 uM top concentration, 90 min at 25° C., LabChip EZ Reader II; read-out: TBK1_IC50. The method, boiled down: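 Read-out was a Caliper LabChip mobility-shift assay, run after a 90-min, 25 °C reaction of TBK1 with substrate and compounds, quenched with stop buffer. Control wells received staurosporine at 10 uM final.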

pIC50: −log10 of the molar value.

As for `COc1nc(Nc2nccc(-c3ccc(OC4CCN(C(=O)C(O)C5CC5)CC4(F)F)c(C#N)c3)n2)ccc1C1CCN(C2COC2)CC1` (centres unmarked) [Example 239, 2-[1-(2-Cyclopropyl-2-hydroxy-acetyl)-3,3-difluoro-piperidin-4-yloxy]-5-[2-(2-methoxy-1′-oxetan-3-yl-1′,2′,3′,4′,5′,6′-hexahydro-[3,4′]bipyridinyl-6-ylamino)-pyrimidin-4-yl]-benzonitrile], the pIC50 at IKKε and on TBK1 was > 7.00 in each case.
As for `COc1cccc(Nc2nccc(-c3ccc(O[C@H]4CCN(C(=O)[C@H](C)O)CC4(F)F)c(C#N)c3)n2)n1` [Example 240, 2-[[(4S)-3,3-difluoro-1-[(2S)-2-hydroxypropanoyl]piperidin-4-yl]oxy]-5-[2-[(6-methoxypyridin-2-yl)amino]pyrimidin-4-yl]benzonitrile], the pIC50 on IKKε and on TBK1 was 6.00 to 7.00 in each case.
In the case of `COc1cccc(Nc2nccc(-c3ccc(O[C@@H]4CCN(C(=O)[C@H](C)O)CC4(F)F)c(C#N)c3)n2)n1` [Example 241, 2-[[(4R)-3,3-difluoro-1-[(2S)-2-hydroxypropanoyl]piperidin-4-yl]oxy]-5-[2-[(6-methoxypyridin-2-yl)amino]pyrimidin-4-yl]benzonitrile], the pIC50 at IKKε and at TBK1 was > 7.00 throughout.
Take `COc1cccc(Nc2nccc(-c3ccc(OC4CCN(C(=O)[C@@H](O)CO)CC4(F)F)c(C#N)c3)n2)n1` (stereo partly drawn) [Example 242, 2-[1-((S)-2,3-Dihydroxy-propionyl)-3,3-difluoro-piperidin-4-yloxy]-5-[2-(6-methoxy-pyridin-2-ylamino)-pyrimidin-4-yl]-benzonitrile]: the pIC50 at IKKε and on TBK1 was > 7.00 throughout.
As to `N#Cc1cc(-c2ccnc(Nc3ccccn3)n2)ccc1OC1CCN(C(=O)[C@@H](O)CO)CC1(F)F` (stereo partly drawn) [Example 243, 2-[1-((S)-2,3-Dihydroxy-propionyl)-3,3-difluoro-piperidin-4-yloxy]-5-[2-(pyridin-2-ylamino)-pyrimidin-4-yl]-benzonitrile], the pIC50 at IKKε and on TBK1 was > 7.00 in each case.
As for `COc1ccc(Nc2nccc(-c3ccc(OC4CCN(C(=O)[C@@H](O)CO)CC4(F)F)c(C#N)c3)n2)nc1OC` (stereo partly drawn) [Example 244, 2-[1-((S)-2,3-Dihydroxy-propionyl)-3,3-difluoro-piperidin-4-yloxy]-5-[2-(5,6-dimethoxy-pyridin-2-ylamino)-pyrimidin-4-yl]-benzonitrile], the pIC50 at IKKε and at TBK1 was > 7.00 throughout.
As to `C[C@H](O)C(=O)N1CCC(Oc2ccc(-c3ccnc(Nc4ccc(N5CCN(C6COC6)CC5)cn4)n3)cc2C#N)C(F)(F)C1` (stereo partly drawn) [Example 245, 2-([33-difluoro-1-[(2S)-2-hydroxypropanoyl]piperidin-4-yl]oxy)-5-[2-([5-[4-(oxetan-3-yl)piperazin-1-yl]pyridin-2-yl]amino)pyrimidin-4-yl]benzonitrile], the pIC50 on IKKε and on TBK1 was > 7.00 each time.
On to `COc1nc(Nc2nccc(-c3ccc(OC4CCN(C(=O)[C@H](C)OC)CC4(F)F)c(C#N)c3)n2)ccc1N1CCN(C2COC2)CC1` (stereo partly drawn) [Example 246, 2-[3,3-Difluoro-1-((S)-2-methoxy-propionyl)-piperidin-4-yloxy]-5-{2-[6-methoxy-5-(4-oxetan-3-yl-piperazin-1-yl)-pyridin-2-ylamino]-pyrimidin-4-yl}-benzonitrile], for which the pIC50 on IKKε and on TBK1 was > 7.00 throughout.
Regarding `COc1nc(Nc2nccc(-c3ccc(O[C@H]4CCN(C(=O)[C@H](C)O)CC4(F)F)c(C#N)c3)n2)ccc1N1CCN(C2COC2)[C@@H](C)C1` [Example 247, 2 2-[(S)-3,3-Difluoro-1-((S)-2-hydroxy-propionyl)-piperidin-4-yloxy]-5-{2-[6-methoxy-5-((S)-3-methyl-4-oxetan-3-yl-piperazin-1-yl)-pyridin-2-ylamino]-pyrimidin-4-yl}-benzonitrile], the pIC50 at IKKε and at TBK1 was > 7.00 throughout.
Regarding `COc1nc(Nc2nccc(-c3ccc(O[C@@H]4CCN(C(=O)[C@H](C)O)CC4(F)F)c(C#N)c3)n2)ccc1N1CCN(C2COC2)[C@@H](C)C1` [Example 248, 2 2-[(R)-3,3-Difluoro-1-((S)-2-hydroxy-propionyl)-piperidin-4-yloxy]-5-{2-[6-methoxy-5-((S)-3-methyl-4-oxetan-3-yl-piperazin-1-yl)-pyridin-2-ylamino]-pyrimidin-4-yl}-benzonitrile], the pIC50 on IKKε and on TBK1 was > 7.00 in each case.
Consider `CCOc1nc(Nc2nccc(-c3ccc(OC4CCN(C(=O)[C@H](C)O)CC4(F)F)c(C#N)c3)n2)ccc1N1CCN(C2COC2)CC1` (stereo partly drawn) [Example 249, 2-([33-difluoro-1-[(2S)-2-hydroxypropanoyl]piperidin-4-yl]oxy)-5-[2-([6-ethoxy-5-[4-(oxetan-3-yl)piperazin-1-yl]pyridin-2-yl]amino)pyrimidin-4-yl]benzonitrile], for which the pIC50 on IKKε and on TBK1 was > 7.00 in each case.
As for `COc1nc(Nc2nccc(-c3ccc(OC4CCN(C(=O)C5CCO5)CC4(F)F)c(C#N)c3)n2)ccc1N1CCN(C2COC2)CC1` (centres unmarked) [Example 250, 2-[3,3-Difluoro-1-(oxetane-2-carbonyl)-piperidin-4-yloxy]-5-{2-[6-methoxy-5-(4-oxetan-3-yl-piperazin-1-yl)-pyridin-2-ylamino]-pyrimidin-4-yl}-benzonitrile], the pIC50 at IKKε and at TBK1 was > 7.00 throughout.
With `COc1nc(Nc2nccc(-c3ccc(OC4CCN(C(=O)C(C)C#N)CC4(F)F)c(C#N)c3)n2)ccc1N1CCN(C2COC2)CC1` (centres unmarked) [Example 251, 2-[1-(2-Cyano-2-methyl-acetyl)-33-difluoro-piperidin-4-yloxy]-5-{2-[6-methoxy-5-(4-oxetan-3-yl-piperazin-1-yl)-pyridin-2-ylamino]-pyrimidin-4-yl}-benzonitrile], the pIC50 at IKKε and at TBK1 was > 7.00 each time.
With `COc1nc(Nc2nccc(-c3ccc(OC4CCN(C(=O)[C@@H](C)CO)CC4(F)F)c(C#N)c3)n2)ccc1N1CCN(C2COC2)CC1` (stereo partly drawn) [Example 252, 2-[3,3-Difluoro-1-((S)-3-hydroxy-2-methyl-propionyl)-piperidin-4-yloxy]-5-{2-[6-methoxy-5-(4-oxetan-3-yl-piperazin-1-yl)-pyridin-2-ylamino]-pyrimidin-4-yl}-benzonitrile], the pIC50 at IKKε and on TBK1 was > 7.00 each time.
Consider `COc1nc(Nc2nccc(-c3ccc(OC4CCN(C(=O)CC#N)CC4(F)F)c(C#N)c3)n2)ccc1N1CCN(C2COC2)CC1` (centres unmarked) [Example 253, 2-[1-(2-Cyano-acetyl)-3,3-difluoro-piperidin-4-yloxy]-5-{2-[6-methoxy-5-(4-oxetan-3-yl-piperazin-1-yl)-pyridin-2-ylamino]-pyrimidin-4-yl}-benzonitrile], for which the pIC50 on IKKε and on TBK1 was > 7.00 in each case.
On to `COc1nc(Nc2nccc(-c3ccc(OC4CCN(C(=O)[C@@H]5CCCO5)CC4(F)F)c(C#N)c3)n2)ccc1N1CCN(C2COC2)CC1` (stereo partly drawn) [Example 254, 2-[3,3-Difluoro-1-((S)-tetrahydro-furan-2-carbonyl)-piperidin-4-yloxy]-5-{2-[6-methoxy-5-(4-oxetan-3-yl-piperazin-1-yl)-pyridin-2-ylamino]-pyrimidin-4-yl}-benzonitrile], for which the pIC50 at IKKε and on TBK1 was > 7.00 throughout.
